SMILES strings stand for the structures.

As a reminder, the IC50 is the midpoint of a concentration-inhibition curve. A high value points to a need for much substance.

Test [1] has as its target T1, SSTR5 (Homo sapiens, UniProt P35346). The test is described as follows: SSTR5 binding (R5 Bnd).
Target sequence in this assay (P35346 whole entry, species assumed): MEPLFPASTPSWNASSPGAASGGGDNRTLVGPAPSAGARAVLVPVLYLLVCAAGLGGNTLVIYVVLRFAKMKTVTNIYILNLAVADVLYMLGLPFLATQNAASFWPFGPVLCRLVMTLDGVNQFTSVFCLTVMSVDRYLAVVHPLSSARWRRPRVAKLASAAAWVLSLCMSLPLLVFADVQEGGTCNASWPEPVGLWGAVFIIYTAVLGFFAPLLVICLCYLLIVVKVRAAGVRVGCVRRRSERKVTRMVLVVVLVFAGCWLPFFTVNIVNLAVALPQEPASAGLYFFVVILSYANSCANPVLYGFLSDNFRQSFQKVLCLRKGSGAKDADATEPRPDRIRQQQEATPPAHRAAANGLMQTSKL
For test [2], the target named is T1, SSTR5. Kind of test: Functional assay to assess the inhibition of SSTR5 mediated cyclic AMP production. In kind it is cell-based, human or mouse. The note with it: SSTR5 stable CHO cells, 5 μM FSK, Lance cAMP assay kit, eight-point titration. On the procedure: Functional Assay to Assess the Inhibition of SSTR5Mediated Cyclic AMP Production:
The effects of compounds that bind to human and murine SSTR5 with various affinities on the functional activity of the receptor were assessed by measuring cAMP production in the presence of Forskolin (FSK) alone or FSK plus SS-28 in SSTR5 expressing CHO cells. FSK acts to induce cAMP production in these cells by activating adenylate cyclases, whereas SS-28 suppresses cAMP production in the SSTR5 stable cells by binding to SSTR5 and the subsequent inhibition of adenylate cyclases via an alpha subunit of […] (Gαi).
To measure the agonism activity of the compounds, human or mouse SSTR5 stable CHO cells were pre-incubated with the compounds for 15 min, followed by a one-hour incubation of the cells with 5 μM FSK (in the continuous presence of the compounds). The amount of cAMP produced during the incubation was quantified with the Lance cAMP assay kit (PerkinElmer, CA) according to the manufacturer's instruction, as well as, an IC50 value was obtained by an eight-point titration.
Target sequence in this assay (P35346 whole entry): as the sequence (P35346 whole entry, species assumed) above
A general note: cAMP levels reflect the balance of adenylyl cyclase and phosphodiesterase activity.

Turning to `CCOc1cc(CN2CC[C@H]3C(NC(=O)c4cccc(C)c4)CC[C@H]32)cc(OCC)c1-c1ccc(F)cc1` (stereo in doubt) [Example 63], the IC50 in test [1] is 1.72 nM; in test [2], 32.6 nM.

For `CCOc1cc(CN2CC[C@H]3C(NC(=O)c4cccc(C)c4)CC[C@H]32)cc(OCC)c1-c1ccc(F)cc1` (stereo in doubt) [Example 81], the IC50 in test [1] came out at 5.01 nM; in test [2], 70.1 nM.

On to `Cc1cncc(C(=O)N[C@H]2CC[C@@H]3[C@H]2CCN3Cc2cccc(-c3ccccc3)c2)c1` [Example 19], for which the IC50 in test [1] worked out at 124 nM; in test [2], 1220 nM.

Turning to `CCOc1cc(CN2CC[C@H]3C(NC(=O)c4ccc(C)nc4)CC[C@H]32)cc(OCC)c1-c1ccc(F)cc1` (stereo partly shown) [Example 60], the values for the IC50 in test [1] and in test [2] were 5.45 nM and 46.2 nM, respectively.

Regarding `CCOc1cc(CN2CC[C@H]3C(NC(=O)c4cnc5cc(Cl)ccc5c4O)CC[C@H]32)cc(OCC)c1-c1ccc(F)cc1` (stereo partly shown) [Example 61], the figures for the half-inhibitory concentration (IC50) in test [1] and in test [2] were 15.8 nM and 122 nM, respectively.

`CCOc1cc(CN2CC[C@H]3C(NC(=O)c4ccc5[nH]c(C)nc5c4)CC[C@H]32)cc(OCC)c1-c1ccc(F)cc1` (stereo partly shown) [Example 69]: the IC50 in test [1] was determined as 53.5 nM; in test [2] it was 137 nM.

Turning to `CCOc1cc(CN2CC[C@H]3C(NC(=O)c4ccc5c(c4)nnn5C(C)C)CC[C@H]32)cc(OCC)c1-c1ccc(F)cc1` (stereo partly shown) [Example 72], the figures for the IC50 in test [1] and in test [2] were 4.65 nM and 59.5 nM, respectively.

For the compound `CCOc1cc(CN2CC[C@H]3C(NC(=O)c4cncnc4)CC[C@H]32)cc(OCC)c1-c1ccc(F)cc1` (stereo partly shown) [Example 75], the IC50 in test [1] is 148 nM; in test [2], 386 nM.

With `CCOc1cc(CN2CC[C@H]3C(Nc4nc5ccc(C(=O)O)cc5o4)CC[C@H]32)cc(OCC)c1-c1ccc(F)cc1` (stereo partly shown) [Example 79], the values for the IC50 in test [1] and in test [2] were 1.29 nM and 5.21 nM, respectively.

As to `CCOc1cc(CN2CC[C@H]3C(Nc4nc5ccc(F)cc5o4)CC[C@H]32)cc(OCC)c1-c1ccc(F)cc1` (stereo partly shown) [Example 83], the IC50 in test [1] was determined as 7.47 nM; in test [2], 252 nM.

As for `CCOc1cc(CN2CC[C@H]3C(NC(=O)Nc4cccc(C)c4)CC[C@H]32)cc(OCC)c1-c1ccc(F)cc1` (stereo partly shown) [Example 90], the results for the IC50 in test [1] and in test [2] were 4.99 nM and 85.7 nM, respectively.

In the case of `CCOc1cc(CN2CC[C@H]3C(NC(=O)OCc4ccccc4)CC[C@H]32)cc(OCC)c1-c1ccc(F)cc1` (stereo partly shown) [Example 97], the concentration for half-maximal inhibition (IC50) in test [1] was determined as 1.44 nM; in test [2] it was 32.4 nM.

`CCOc1cc(CN2CC[C@H]3C(Nc4nc5cc(S(=O)(=O)/N=C/N(C)C)ccc5o4)CC[C@H]32)cc(OCC)c1-c1ccc(F)cc1` (stereo partly shown) [Example 100]: the figures for the IC50 in test [1] and in test [2] were 2.07 nM and 38.7 nM, respectively.

In the case of `CCOc1cc(CN2CC[C@H]3C(NS(=O)(=O)c4cccc(C)c4)CC[C@H]32)cc(OCC)c1-c1ccc(F)cc1` (stereo partly shown) [Example 101], the IC50 in test [1] was 12.1 nM; in test [2], 263 nM.
